In the supplement of paper PMC11208160:

Test: recombinant UMI read abundance after kanamycin selection (control-corrected) (log10(CPM+1)); higher = more efficient recombination; extreme values may be limits of the assay; sequences stand for … in AGTGCAGAGAAAATCGGCCAGTTTTCTCTGCCTGCAGTCCGCATGCCGTGGGACCCCTTGGGTTCTAACCTGTTGCCTAGATTTATGCAGCGGACTGCCTTTCTCCCAAAGTGATAAACCGG…AGGTTGGTTTCACT; site = the 11-nt donor
Procedure, shortened: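 In a pooled Escherichia coli screen for the IS621 bridge recombinase, donor and donor-binding-loop pairs were each placed with a 12-nt UMI on a plasmid bearing a promoterless kanamycin gene. This library was co-electroporated with a target plasmid encoding a fixed target and T7-inducible recombinase, and cells were plated either on IPTG (0.07 mM) plus kanamycin or without selection, in two replicates each. Recombinant UMIs were PCR-amplified across the donor–target junction and sequenced, and counts were converted to CPM, averaged over replicates, scaled by control-derived factors and reported as log10(CPM+1).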
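Further: IS621 bridge recombinase in Escherichia coli cells against a fixed T5 target plasmid.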

| Sequence | recombinant UMI read abundance (log10) |
| --- | --- |
| TATCCCGCATGGACCGGTTTTCCCGGTAATCCGTATTTGTT (site TATCCCGCTAA) | 0.479 |
| TATCTTACATGGACCGGTTTTCCCGGTAATCCGTATTTGTA (site TATCTTACTTA) | 0.0229 |
| TATGAATCATGGACCGGTTTTCCCGGTAATCCGTATTTGCC (site TATGAATCTGG) | 1.12 |
| TATGAATCATGGACCGGTTTTCCCGGTAATCCGTATTTGCG (site TAAGAATCTCG) | 1.85 |
| TATGAATCATGGACCGGTTTTCCCGGTAATCCGTATTTGCG (site TACGAATCTCG) | 2.23 |
| TATGAATCATGGACCGGTTTTCCCGGTAATCCGTATTTGCG (site TAGGAATCTCG) | 0.768 |
| TATGAATCATGGACCGGTTTTCCCGGTAATCCGTATTTGCG (site TATGAATCTCG) | 2.18 |
| TATGACCCATGGACCGGTTTTCCCGGTAATCCGTATTTGAG (site TATGACCCTCT) | 0.00635 |
| TATGAGCCATGGACCGGTTTTCCCGGTAATCCGTATTTGGA (site TATGAGCCTTC) | 0.00722 |
| TATGCGGCATGGACCGGTTTTCCCGGTAATCCGTATTTGCT (site TATGCGGCTAG) | 0.532 |
| TATGCGGCATGGACCGGTTTTCCCGGTAATCCGTATTTGCT (site TCTGCGGCTAG) | 0.00356 |
| TATGCGGCATGGACCGGTTTTCCCGGTAATCCGTATTTGCT (site TGTGCGGCTAG) | 0.029 |
| TATGCGGCATGGACCGGTTTTCCCGGTAATCCGTATTTGCT (site TTTGCGGCTAG) | 0.00802 |
| TATGTAACATGGACCGGTTTTCCCGGTAATCCGTATTTGAC (site GTACCGTCTAA) | 0.0137 |
| TATGTCCCATGGACCGGTTTTCCCGGTAATCCGTATTTGGA (site TATGTCCCTTC) | 0.00458 |
| TATTCCCCATGGACCGGTTTTCCCGGTAATCCGTATTTGTA (site TATTCCCCTTA) | 0.0102 |
| TATTCCCCATGGACCGGTTTTCCCGGTAATCCGTATTTGTA (site TCTTCCCCTTA) | 0.207 |
| TATTCCCCATGGACCGGTTTTCCCGGTAATCCGTATTTGTA (site TGTTCCCCTTA) | 0.254 |
| TATTCCCCATGGACCGGTTTTCCCGGTAATCCGTATTTGTA (site TTTTCCCCTTA) | 0.0134 |
| TATTCGGCATGGACCGGTTTTCCCGGTAATCCGTATTTGTG (site TATTAGGCTCA) | 0.0202 |
| TATTCGGCATGGACCGGTTTTCCCGGTAATCCGTATTTGTG (site TATTCGGCTCA) | 0.131 |
| TATTCGGCATGGACCGGTTTTCCCGGTAATCCGTATTTGTG (site TATTGGGCTCA) | 0.00845 |
| TATTCGGCATGGACCGGTTTTCCCGGTAATCCGTATTTGTG (site TATTTGGCTCA) | 0.0132 |

| Sequence | recombinant UMI read abundance (log10) |
| --- | --- |
| TATTGCACATGGACCGGTTTTCCCGGTAATCCGTATTTGGT (site TATTGCACTAC) | 0.029 |
| TATTTGGCATGGACCGGTTTTCCCGGTAATCCGTATTTGCG (site TATTTGGCTCA) | 0.0189 |
| TATTTGGCATGGACCGGTTTTCCCGGTAATCCGTATTTGCG (site TATTTGGCTCC) | 0.0115 |
| TATTTGGCATGGACCGGTTTTCCCGGTAATCCGTATTTGCG (site TATTTGGCTCG) | 0.0194 |
| TATTTGGCATGGACCGGTTTTCCCGGTAATCCGTATTTGCG (site TATTTGGCTCT) | 0.0118 |
| TATTTGGCATGGACCGGTTTTCCCGGTAATCCGTATTTGTC (site TATTTGGCTAA) | 0.0189 |
| TATTTGGCATGGACCGGTTTTCCCGGTAATCCGTATTTGTC (site TATTTGGCTCA) | 0.00726 |
| TATTTGGCATGGACCGGTTTTCCCGGTAATCCGTATTTGTC (site TATTTGGCTGA) | 0 |
| TATTTGGCATGGACCGGTTTTCCCGGTAATCCGTATTTGTC (site TATTTGGCTTA) | 0.00596 |
| TATTTGGCATGGACCGGTTTTCCCGGTAATCCGTATTTGTG (site AATTTGGCTCA) | 0.0279 |
| TATTTGGCATGGACCGGTTTTCCCGGTAATCCGTATTTGTG (site CATTTGGCTCA) | 0.0142 |
| TATTTGGCATGGACCGGTTTTCCCGGTAATCCGTATTTGTG (site GATTTGGCTCA) | 0.026 |
| TATTTGGCATGGACCGGTTTTCCCGGTAATCCGTATTTGTG (site TAATTGGCTCA) | 0.0238 |
| TATTTGGCATGGACCGGTTTTCCCGGTAATCCGTATTTGTG (site TACTTGGCTCA) | 0.00946 |
| TATTTGGCATGGACCGGTTTTCCCGGTAATCCGTATTTGTG (site TAGTTGGCTCA) | 0.00343 |
| TATTTGGCATGGACCGGTTTTCCCGGTAATCCGTATTTGTG (site TATATGGCTCA) | 0.00476 |
| TATTTGGCATGGACCGGTTTTCCCGGTAATCCGTATTTGTG (site TATCTGGCTCA) | 0.00736 |
| TATTTGGCATGGACCGGTTTTCCCGGTAATCCGTATTTGTG (site TATGTGGCTCA) | 0.0139 |
| TATTTGGCATGGACCGGTTTTCCCGGTAATCCGTATTTGTG (site TATTAGGCTCA) | 0.00968 |
| TATTTGGCATGGACCGGTTTTCCCGGTAATCCGTATTTGTG (site TATTCGGCTCA) | 0.0142 |
| TATTTGGCATGGACCGGTTTTCCCGGTAATCCGTATTTGTG (site TATTGGGCTCA) | 0.00686 |
| TATTTGGCATGGACCGGTTTTCCCGGTAATCCGTATTTGTG (site TATTTAGCTCA) | 0.0189 |
| TATTTGGCATGGACCGGTTTTCCCGGTAATCCGTATTTGTG (site TATTTCGCTCA) | 0.00607 |

| Sequence | recombinant UMI read abundance (log10) |
| --- | --- |
| TATTTGGCATGGACCGGTTTTCCCGGTAATCCGTATTTGTG (site TATTTGACTCA) | 0.0103 |
| TATTTGGCATGGACCGGTTTTCCCGGTAATCCGTATTTGTG (site TATTTGCCTCA) | 0.00864 |
| TATTTGGCATGGACCGGTTTTCCCGGTAATCCGTATTTGTG (site TATTTGGCTAA) | 0.0123 |
| TATTTGGCATGGACCGGTTTTCCCGGTAATCCGTATTTGTG (site TATTTGGCTCA) | 0.0246 |
| TATTTGGCATGGACCGGTTTTCCCGGTAATCCGTATTTGTG (site TATTTGGCTCC) | 0.0133 |
| TATTTGGCATGGACCGGTTTTCCCGGTAATCCGTATTTGTG (site TATTTGGCTCG) | 0.00904 |
| TATTTGGCATGGACCGGTTTTCCCGGTAATCCGTATTTGTG (site TATTTGGCTCT) | 0.0103 |
| TATTTGGCATGGACCGGTTTTCCCGGTAATCCGTATTTGTG (site TATTTGGCTGA) | 0 |
| TATTTGGCATGGACCGGTTTTCCCGGTAATCCGTATTTGTG (site TATTTGGCTTA) | 0.0236 |
| TATTTGGCATGGACCGGTTTTCCCGGTAATCCGTATTTGTG (site TATTTGTCTCA) | 0.0606 |
| TATTTGGCATGGACCGGTTTTCCCGGTAATCCGTATTTGTG (site TATTTTGCTCA) | 0.0154 |
| TATTTGGCATGGACCGGTTTTCCCGGTAATCCGTATTTGTG (site TCTTTGGCTCA) | 0.00921 |
| TATTTGGCATGGACCGGTTTTCCCGGTAATCCGTATTTGTG (site TGTTTGGCTCA) | 0.00811 |
| TATTTGGCATGGACCGGTTTTCCCGGTAATCCGTATTTGTG (site TTTTTGGCTCA) | 0.0282 |
| TCAAAGACATGGACCGGTTTTCCCGGTAATCCGTATTTGCG (site TCAAAGACTCG) | 1.9 |
| TCAAAGACATGGACCGGTTTTCCCGGTAATCCGTATTTGCG (site TCACAGACTCG) | 0.546 |
| TCAAAGACATGGACCGGTTTTCCCGGTAATCCGTATTTGCG (site TCAGAGACTCG) | 0.87 |
| TCAAAGACATGGACCGGTTTTCCCGGTAATCCGTATTTGCG (site TCATAGACTCG) | 0.773 |
| TCAACCGCATGGACCGGTTTTCCCGGTAATCCGTATTTGCG (site TCAACCGCTCG) | 0 |
| TCAACCGCATGGACCGGTTTTCCCGGTAATCCGTATTTGCG (site TCCACCGCTCG) | 0 |
| TCAACCGCATGGACCGGTTTTCCCGGTAATCCGTATTTGCG (site TCGACCGCTCG) | 0.00292 |
| TCAACCGCATGGACCGGTTTTCCCGGTAATCCGTATTTGCG (site TCTACCGCTCG) | 0 |
